# US6083692A, “Method of detecting the presence and measuring the quantity of biological polymers” (American Home Products Corporation, priority 1996, dated 2000)
# Tested on: ATP-dependent exonuclease
# Test: Coupled spectrophotometric assay: ADP formation coupled to NADH oxidation (PK/LDH), read at 340 nm
# Type: biochemical
# Details: for Product inhibition: observed only upon >50% conversion of the substrates ATP and DNA; for Relative rate of ATP hydrolysis: alone
# Procedure: Standard curves were routinely generated by using 0, 2, 6, 10, 14 and 18 μL of 1 ng/μL substrate DNA. Eighty μl of the reaction mix was incubated with up to 20 μl of DNA and dH2 O (total volume of 100 μl) at 25° C. The reactions were quenched with 15 μl of 200 mM EDTA, pH 8.0/NaOH, following a 30 or 40 min incubation. The reactions were read at 340 nm.
# The 10× assay buffer contained tris-acetate (pH 7.8/acetate at 25° C.); 330 mM, potassium acetate; 660 mM, magnesium acetate; 100 mM, dithiothreitol; 5 mM, Triton X-100, 0.1%. The reaction mix was prepared as follows, 10× buffer; 0.250 ml, NADH; 0.250 ml (0.64 μmoles), PEP; 25.0 μl (2.4 μmoles), ATP; 75.0 μl (2.5 μmoles), H2 O; 1.305 ml, PK/LDH enzyme mix; 75.0 μl, ATP dependent DNAase; 20.0 μl (200 units).
# An enzyme kinetics program ENZFITTER (Elsevier Biosoft) was used to generate a plot (A340 versus ng DNA) of the standard. The slope was calculated following a regression analysis. A similar plot of the sample (A340 versus μL DNA) was also prepared. The slope determined from the regression analysis was used to calculate the concentration of linear DNA in the sample.
# A reliable method for quantification requires that the concentration of products formed in the reaction is linear with time, concentrations of enzyme and of substrate. In the present assay, ATP hydrolysis was linear with time. The experiments that generated the data shown in FIG. 2 are a coupled spectrophotometric assay in which the linear DNA content was varied from 2 to 20 ng. Twenty μL aliquots were removed at various times (10, 20, 30 & 60 min), and quenched by mixing with 4 μl of 200 mM EDTA as described in Materials and Methods. The samples were further diluted to 100 μl with water, to facilitate determination of optical density. ATP hydrolysis was linear with time and at least up to 40% substrate converted to products (<0.4 mM ADP and Pi). ADP formation was also linear with several enzyme concentrations. The experiments that generated the data shown in FIG. 3 are a coupled assay system in which the amount of enzyme added to the reaction was varied. The enzyme was diluted using 1× reaction buffer and left on ice prior to its addition to the reaction mixture. The reaction was quenched at 15 min, with EDTA as described in Materials and Methods. ADP formation was linear with several enzyme concentrations at least until 0.36 mM ADP and Pi was formed in the reaction. The reaction rates were slower when ~60% of the substrates (100 ng DNA and 1 mM ATP) were converted to products. […] The Vmax was 30 nmoles/min/mg enzyme. In the experiments that generated the data in FIG. 4, the reaction was carried out in a coupled assay as described in the Methods. The reactions were initiated by the addition of enzyme. Following initiation of the 500 μl reaction; 100 μl samples were withdrawn at 1, 2, 5 and 10 min and quenched with 10 μl of 200 mM EDTA. Initial velocities were derived from the reaction rate, obtained by linear regression analysis of absorbances at 340 nm recorded at various times during the reaction. […] The data reported in FIG. 5A is replot of FIG. 2 as a function of linear DNA content in the reaction mixture. In the experiments which generated these date, the 20 μl aliquots were quenched with EDTA as described above, at various times of incubation. […] The results are consistent with the potential use of this enzyme to quantify linear DNA content.
# [1] = 50 ng linear DNA as substrate, +10 mM EDTA or +1 mM citrate
compound,measurement,setting,value
"Nc1ncnc2c1ncn2[C@@H]1O[C@H](COP(=O)(O)OP(=O)(O)O)[C@@H](O)[C@H]1O [ADP, adenosine diphosphate]",Product inhibition,,Product inhibition
O=C(O)CN(CCN(CC(=O)O)CC(=O)O)CC(=O)O [EDTA],Relative rate of ATP hydrolysis,[1],0.008
same,Effect on the enzymatic reaction,at molar equivalent to the divalent cation used in the assay,quenched the enzymatic reaction
"O=P(O)(O)O [Pi, inorganic phosphate]",Product inhibition,,Product inhibition
O=C(O)CC(O)(CC(=O)O)C(=O)O [citrate],Relative rate of ATP hydrolysis,[1],0.686
same,Enhancement of enzymatic activity,citrate at 50 μM,~50%
same,Inhibition of ATP hydrolytic activity,citrate at 1 mM in the presence of 10 mM Mg++,30%
CCO [ethanol],Relative rate of ATP hydrolysis,"5 ng linear DNA as substrate, +200 ng t-RNA, +500 ng circular DNA or +5% ethanol",0.86
same,Relative rate of ATP hydrolysis,"10 ng linear DNA as substrate, +200 ng t-RNA, +500 ng circular DNA or +5% ethanol",1.78
same,Relative rate of ATP hydrolysis,"15 ng linear DNA as substrate, +200 ng t-RNA, +500 ng circular DNA or +5% ethanol",2.64
same,Effect on enzymatic activity,concentrations beyond 4% ethanol,severely inhibited
